Measured values: patent US8178658B2 (Dow AgroSciences, LLC, priority 2008, dated 2012)

How the values were obtained:
[1] = system: beet armyworm (BAW; Spodoptera exigua: Lepidoptera); assay: 128-well diet tray assay on beet armyworm (BAW 50); assay type: in vivo; conditions: for BAW 50 ug/cm2: 128-well diet tray assay, 50 μg/cm^2 of test compound on diet, second instar BAW larvae, mortality class; for pest or weed control at 50 µg/cm2, 50 µg/cm2: Spodoptera exigua, 144 h, read-out: BAW 50 ug/cm2
In short: (§1)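 In the HTS format, eggs were placed on diet surface-treated with 12 μg compound per well, held dark at 29° C, and scored for mortality at 6 d (mean of six replicates). The tray format used three to five second instar larvae on diet treated at 50 μg/cm^2, 25° C, 14:10 light-dark, six days, averaged over eight wells.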

[2] = system: beet armyworm (BAW; Spodoptera exigua: Lepidoptera); assay: 96-well microtiter plate-based high throughput (HTS) diet bioassay on beet armyworm (BAW HTS); assay type: in vivo; conditions: for BAW HTS: BAW eggs, 12 μg test compound per well, mortality at 6 d post-treatment, mortality class; for pest or weed control at 12 µg/well, 12 µg/well: Spodoptera exigua, 144 h, read-out: BAW HTS
In short: as §1

[3] = 96-well microtiter plate HTS diet assay

| SMILES | BAW 50 ug/cm2 [1] | BAW HTS ([2]; 96-well HTS diet assay) | BAW HTS [2, 3] | pest or weed control at 50 µg/cm2, 50 µg/cm2 [1] [%] | pest or weed control at 12 µg/well, 12 µg/well [2] [%] |
| --- | --- | --- | --- | --- | --- |
| CCO[C@@H]1[C@@H](OC)[C@H](C)O[C@@H](OC(=O)Nc2ccc(-c3ncn(-c4ccc(OC(F)(F)C(F)(F)F)cc4)n3)cc2Br)[C@@H]1OC [Compound 224] | A (the compound was tested and at least 50 percent mortality was observed) | B (either (1) the compound was tested and less than 50 percent mortality was observed or (2) the compound was not tested) | B (either (1) the compound was tested and less than 50 percent mortality was observed or (2) the compound was not tested) |  |  |
| CCO[C@@H]1[C@@H](OC)[C@H](C)O[C@@H](OC(=O)Nc2ccc(-c3ncn(-c4ccc(OC(F)(F)C(F)(F)C(F)(F)F)cc4)n3)cc2)[C@@H]1OC [Compound 225] | A (the compound was tested and at least 50 percent mortality was observed) | B (either (1) the compound was tested and less than 50 percent mortality was observed or (2) the compound was not tested) | B (either (1) the compound was tested and less than 50 percent mortality was observed or (2) the compound was not tested) |  |  |
| CCO[C@@H]1[C@@H](OC)[C@H](C)O[C@@H](OC(=O)Nc2ccc(-n3c(C(=O)OC)nn(-c4ccc(OC(F)(F)F)cc4)c3=O)cc2)[C@@H]1OC [Compound 226] | B (either (1) the compound was tested and less than 50 percent mortality was observed or (2) the compound was not tested) | B (either (1) the compound was tested and less than 50 percent mortality was observed or (2) the compound was not tested) | B (either (1) the compound was tested and less than 50 percent mortality was observed or (2) the compound was not tested) |  |  |
| CCO[C@@H]1[C@@H](OC)[C@H](C)O[C@H](OC(=O)Nc2ccc(-n3c(C(=O)OC)nn(-c4ccc(OC(F)(F)F)cc4)c3=O)cc2)[C@@H]1OC [Compound 227] | B (either (1) the compound was tested and less than 50 percent mortality was observed or (2) the compound was not tested) | B (either (1) the compound was tested and less than 50 percent mortality was observed or (2) the compound was not tested) | B (either (1) the compound was tested and less than 50 percent mortality was observed or (2) the compound was not tested) |  |  |
| CCO[C@@H]1[C@@H](OC)[C@H](C)O[C@@H](OC(=O)Nc2ccc(-n3cnn(-c4ccc(OC(F)(F)F)cc4)c3=O)cc2)[C@@H]1OC [Compound 228] | B (either (1) the compound was tested and less than 50 percent mortality was observed or (2) the compound was not tested) | B (either (1) the compound was tested and less than 50 percent mortality was observed or (2) the compound was not tested) | B (either (1) the compound was tested and less than 50 percent mortality was observed or (2) the compound was not tested) |  |  |
| CO[C@@H]1[C@@H](OC)[C@H](C)O[C@@H](OC(=O)Nc2ccc(-n3cnc(-c4ccc(C(F)(F)F)cc4)n3)cc2)[C@@H]1OC [Compound 229] | A (the compound was tested and at least 50 percent mortality was observed) | A (the compound was tested and at least 50 percent mortality was observed) | A (the compound was tested and at least 50 percent mortality was observed) |  |  |
| CO[C@@H]1[C@@H](OC)[C@H](C)O[C@@H](OC(=O)Nc2ccc(-c3nnc(-c4ccc(Cl)cc4Cl)o3)cc2)[C@@H]1OC [Compound 230] | A (the compound was tested and at least 50 percent mortality was observed) | B (either (1) the compound was tested and less than 50 percent mortality was observed or (2) the compound was not tested) | B (either (1) the compound was tested and less than 50 percent mortality was observed or (2) the compound was not tested) |  |  |
| CO[C@@H]1[C@@H](OC)[C@H](C)O[C@@H](OC(=O)Nc2ccc(-c3ccnc(-c4ccc(C(F)(F)F)cc4)n3)cc2)[C@@H]1OC [Compound 232, {4-[2-(4-trifluoromethylphenyl)-pyrimidin-4-yl]-phenyl}-carbamic acid (2S,3R,4R,5S,6S)-3,4,5-trimethoxy-6-methyl-tetrahydropyran-2-yl ester] | A (the compound was tested and at least 50 percent mortality was observed) |  | A (the compound was tested and at least 50 percent mortality was observed) | > 50 | > 50 |
| CO[C@@H]1[C@@H](OC)[C@H](C)O[C@@H](OC(=O)Nc2ccc(-c3cc(C(F)(F)C(F)(F)C(F)(F)F)nc(-c4ccc(C(F)(F)F)cc4)n3)cc2)[C@@H]1OC [Compound 233] | A (the compound was tested and at least 50 percent mortality was observed) | B (either (1) the compound was tested and less than 50 percent mortality was observed or (2) the compound was not tested) | B (either (1) the compound was tested and less than 50 percent mortality was observed or (2) the compound was not tested) |  |  |
| COc1ccc(-c2nccc(-c3ccc(NC(=O)O[C@@H]4O[C@@H](C)[C@H](OC)[C@@H](OC)[C@H]4OC)cc3)n2)cc1 [Compound 234, {4-[2-(4-methoxyphenyl)-pyrimidin-4-yl]-phenyl}-carbamic acid (2S,3R,4R,5S,6S)-3,4,5-trimethoxy-6-methyl-tetrahydropyran-2-yl ester] | B (either (1) the compound was tested and less than 50 percent mortality was observed or (2) the compound was not tested) |  | B (either (1) the compound was tested and less than 50 percent mortality was observed or (2) the compound was not tested) | < 50 | < 50 |
| CO[C@@H]1[C@@H](OC)[C@H](C)O[C@@H](OC(=O)Nc2ccc(-c3cc(C(F)(F)F)nc(-c4ccc(C(F)(F)F)cc4)n3)cc2)[C@@H]1OC [Compound 235] | B (either (1) the compound was tested and less than 50 percent mortality was observed or (2) the compound was not tested) | A (the compound was tested and at least 50 percent mortality was observed) | A (the compound was tested and at least 50 percent mortality was observed) |  |  |
| CCCO[C@@H]1[C@@H](OC)[C@H](C)O[C@@H](OC(=O)Nc2ccc(-c3ncc(-c4ccc(OC(F)(F)F)cc4)cn3)cc2)[C@@H]1OC [Compound 236] | A (the compound was tested and at least 50 percent mortality was observed) | B (either (1) the compound was tested and less than 50 percent mortality was observed or (2) the compound was not tested) | B (either (1) the compound was tested and less than 50 percent mortality was observed or (2) the compound was not tested) |  |  |
| CCO[C@@H]1[C@@H](OC)[C@H](C)O[C@@H](OC(=O)Nc2ccc(-c3nncc(-c4ccc(OC(F)(F)F)cc4)n3)cc2)[C@@H]1OC [Compound 237] | A (the compound was tested and at least 50 percent mortality was observed) | B (either (1) the compound was tested and less than 50 percent mortality was observed or (2) the compound was not tested) | B (either (1) the compound was tested and less than 50 percent mortality was observed or (2) the compound was not tested) |  |  |
| CCO[C@@H]1[C@@H](OC)[C@H](C)O[C@@H](OC(=O)Nc2ccc(-c3cnnc(-c4ccc(OC(F)(F)F)cc4)n3)cc2)[C@@H]1OC [Compound 238] | A (the compound was tested and at least 50 percent mortality was observed) | B (either (1) the compound was tested and less than 50 percent mortality was observed or (2) the compound was not tested) | B (either (1) the compound was tested and less than 50 percent mortality was observed or (2) the compound was not tested) |  |  |
| CCO[C@@H]1[C@@H](OC)[C@H](C)O[C@@H](OC(=O)Nc2ccc(-c3ccc(-c4ccc(OC(F)(F)F)cc4)cn3)cc2)[C@@H]1OC [Compound 239] | B (either (1) the compound was tested and less than 50 percent mortality was observed or (2) the compound was not tested) | B (either (1) the compound was tested and less than 50 percent mortality was observed or (2) the compound was not tested) | B (either (1) the compound was tested and less than 50 percent mortality was observed or (2) the compound was not tested) |  |  |
| CCO[C@@H]1[C@@H](OC)[C@H](C)O[C@@H](OC(=O)Nc2ccc(-c3noc(-c4ccc(OC(F)(F)F)cc4)n3)cc2)[C@@H]1OC [Compound 240] | A (the compound was tested and at least 50 percent mortality was observed) | A (the compound was tested and at least 50 percent mortality was observed) | A (the compound was tested and at least 50 percent mortality was observed) |  |  |
| CCO[C@@H]1[C@@H](OC)[C@H](C)O[C@@H](OC(=O)Nc2ccc(N3CCN(c4ccc(OC(F)(F)F)cc4)CC3)cc2)[C@@H]1OC [Compound 241] | B (either (1) the compound was tested and less than 50 percent mortality was observed or (2) the compound was not tested) | B (either (1) the compound was tested and less than 50 percent mortality was observed or (2) the compound was not tested) | B (either (1) the compound was tested and less than 50 percent mortality was observed or (2) the compound was not tested) |  |  |
| CCO[C@@H]1[C@@H](OC)[C@H](C)O[C@@H](OC(=O)Nc2ccc(N3CC(=O)N(c4ccc(OC(F)(F)F)cc4)CC3=O)cc2)[C@@H]1OC [Compound 242] | A (the compound was tested and at least 50 percent mortality was observed) | B (either (1) the compound was tested and less than 50 percent mortality was observed or (2) the compound was not tested) | B (either (1) the compound was tested and less than 50 percent mortality was observed or (2) the compound was not tested) |  |  |
